Laboratory results as given in patent US9695225B2, “Peptide compound for treatment of severe hypoglycemia” (Eli Lilly and Company, priority 2013, dated 2017).
Like-named read-outs stand apart in the source and are kept apart here. Non-standard residues stand in square brackets, D forms with d. Residues, ends and D or L forms follow the SMILES beside them. Aib = CC(C)(N)C(=O)O

How the values were obtained:
[1] = type: physicochemical
Protocol: (§1) The compound of SEQ ID NO: 2 is dissolved in H2O to a 10 mg/mL concentration (peptide content), filtered through a 0.22 μm filter (Millex, SLGV004SL), and then diluted to 1 mg/mL in Buffer P5 (10 mM Histidine, 150 mM NaCl in H2O, pH 5.0) or Buffer P6 (10 mM Histidine, 150 mM NaCl in H2O, pH 6.0). Each solution is transferred to three vials and autoclaved. Samples are then maintained at 4° C., 30° C. and 40° C. Samples are visually assessed at different time points for turbidity and phase separation. Stability of the compound is assessed by analytical reverse phase HPLC (RP-HPLC) on a Phenomenex Aeris Widepore, 3.6 μm, XB-C18 4.6×100 mm column (P/NO 00D-4482-E0) heated at 60° C. with a AB (A=0.05% TFA/H2O; B=0.04% TFA/acetonitrile) gradient of 5% B isocratic over 5 min, 5 to 25% B over 20 minutes, 25 to 30% B over 30 min, and 30 to 45% B over 10 min with a flow rate of 1.2 mL/min (wavelength of 220 ηm).

[2] = Chemical stability by RP-HPLC (% main peak); type: physicochemical; conditions: for 4° C. % Main Peak / 30° C. % Main Peak / 40° C. % Main Peak: 4 weeks; for % Main Peak Day 0: RP-HPLC
Protocol: as §1
The compound of SEQ ID NO: 2 also maintains chemical stability at pH 5 (Buffer P5) and pH 6 (Buffer P6) when maintained at 4° C., 30° C. and 40° C. for 4 weeks.

[3] = Physical stability test using Thioflavin T binding assay (fibrillation); type: physicochemical; conditions: 25° C.; for Thioflavin T fluorescence t = 0 h / Thioflavin T fluorescence t = 40 h / Thioflavin T fluorescence t = 120 h: 1 mg/mL, 300 rpm
Protocol: Fibrillation is a common problem when glucagon is formulated in aqueous solution. To assess the level of fibrillation of the compound of the present invention, a Thioflavin T binding assay is performed.
All samples are mechanically stressed at 25° C. in a magnetic stir plate set at 300 rpm. […] Raw data is collected with Softmax Pro 5.4.1 (Molecular Devices) and imported to Excel.

C57/Bl6 male mice = assay: Effects on blood glucose levels in C57/Bl6 male mice; type: in vivo; conditions: for Blood glucose levels: mean±SEM of 4 mice
Protocol: To determine the effects of the compound of SEQ ID NO: 2 on blood glucose levels, the compound is administered to C57/Bl6 mice. Three month old male C57BL6 mice (Harlan Laboratories) are used Animals are individually housed in a temperature-controlled (24° C.) facility with a 12 hour light/dark cycle, and have free access to food and water. After 1 week acclimation to the facility, mice are randomized to treatment groups (n=4/group). Test compound is formulated in Buffer 2 (see Physical stability test using Thioflavin T binding assay). On the morning of test, food is removed at 08:00 AM. Two hours after food is removed, the test compound is given subcutaneously at 0, 1, 3 or 10 μg/kg doses. Blood glucose is measured at time 0, 15, 30, 60 and 120 minutes after test compound administration with an ACCU-CHECK® (Roche Diagnostics) glucometer. […] Results are expressed as mean±standard error mean (SEM) of 4 mice per group.
Blood glucose levels at 10 μg/kg of compound of SEQ ID NO: 2 is taken as the maximum value.

[4] = Buffer 1 (20 mM Histidine, pH 6.0)
[5] = Buffer 2 (10 mM Histidine, 150 nM NaCl, pH 6.0)
[6] = Buffer 3 (10 mM Histidine, 300 mM sorbitol, pH 6.0)
[7] = Buffer 4 (10 mM Histidine, 0.02% Tween 80, pH 6.0)
[8] = Buffer 5 (10 mM Histidine, 300 mM Arginine, pH 6.0)
[9] = Buffer 6 (10 mM Histidine, 300 mM sucrose, pH 6.0)

In the case of `CC(C)C[C@H](NC(=O)[C@H](Cc1c[nH]c2ccccc12)NC(=O)[C@H](CCC(=O)O)NC(=O)[C@@H](NC(=O)[C@H](Cc1ccccc1)NC(=O)[C@H](CCC(=O)O)NC(=O)[C@H](CCC(N)=O)NC(=O)[C@H](C)NC(=O)[C@H](CCCCN)NC(=O)[C@H](CCCCN)NC(=O)C(C)(C)NC(=O)[C@H](CC(=O)O)NC(=O)[C@H](CC(C)C)NC(=O)[C@H](Cc1ccc(O)cc1)NC(=O)[C@H](CCCCN)NC(=O)[C@H](CO)NC(=O)[C@H](Cc1ccc(O)cc1)NC(=O)[C@H](CC(=O)O)NC(=O)[C@H](CO)NC(=O)[C@H](CC(C)C)NC(=O)[C@H](Cc1ccccc1)NC(=O)[C@@H](NC(=O)CNC(=O)[C@H](CCC(N)=O)NC(=O)[C@H](C)NC(=O)[C@@H](N)Cc1c[nH]cn1)[C@@H](C)O)C(C)C)C(=O)N[C@@H](CC(C)C)C(=O)N[C@@H](CCCCN)C(=O)N[C@H](C(=O)NCC(=O)N1CCC[C@H]1C(=O)N[C@@H](CO)C(=O)N[C@@H](CO)C(=O)NCC(=O)N[C@@H](C)C(=O)N1CCC[C@H]1C(=O)N1CCC[C@H]1C(=O)N[C@@H](CCCCN)C(=O)N[C@@H](CO)C(=O)N[C@@H](CCCCN)C(N)=O)[C@@H](C)O` [SEQ ID NO: 2] (H-HAQGTFLSDYSKYLD[Aib]KKAQEFVEWLLKTGPSSGAPPKSK-NH2), the “solubility by visual assessment and RP-HPLC” value [1] is reported as “maintains good solubility”, the Physical appearance ([1]; 1 mg/mL, Buffer P5 and P6, over 4 weeks) is reported as “clear to colorless, with no opalescences and no particles” and the “30° C. vs 4° C. Recovery 4 wk” value ([1]; Buffer P5 (pH 5.0)) is reported as 100%. The “40° C. vs 4° C. Recovery 4 wk” value ([1]; Buffer P5 (pH 5.0)) was 100%, the “30° C. vs 4° C. Recovery 4 wk” value ([1]; Buffer P6 (pH 6.0)) was 100% and the “40° C. vs 4° C. Recovery 4 wk” value ([1]; Buffer P6 (pH 6.0)) was 101%. The “4° C. Total Peak Area 4 wk” value ([1]; pH 5) was 4933, the “30° C. Total Peak Area 4 wk” value ([1]; pH 5) was 4932 and the “40° C. Total Peak Area 4 wk” value ([1]; pH 5) was 4932. The “4° C. Total Peak Area 4 wk” value ([1]; pH 6) was 4918, the “30° C. Total Peak Area 4 wk” value ([1]; pH 6) was 4911 and the “40° C. Total Peak Area 4 wk” value ([1]; pH 6) was 4960. The “4° C. % Main Peak” value ([2]; Buffer P5 (pH 5.0)) was 98.01%, the “30° C. % Main Peak” value ([2]; Buffer P5 (pH 5.0)) was 97.07% and the “40° C. % Main Peak” value ([2]; Buffer P5 (pH 5.0)) was 92.64%. The “% Main Peak Day 0” value ([2]; Buffer P5 (pH 5.0)) was 99.55%, the “4° C. % Main Peak” value ([2]; Buffer P6 (pH 6.0)) was 98.60% and the “30° C. % Main Peak” value ([2]; Buffer P6 (pH 6.0)) was 97.71%. The “40° C. % Main Peak” value ([2]; Buffer P6 (pH 6.0)) was 95.00%, the “% Main Peak Day 0” value ([2]; Buffer P6 (pH 6.0)) was 99.02% and the main peak changes ([2]; pH 5 (Buffer P5), after 4 weeks at 30° vs. 4° C.) was “less than 1%”. For the same compound, the main peak changes ([2]; pH 5 (Buffer P5), after 4 weeks at 40° C. vs. 4° C.) was “less than 6%”, the main peak changes ([2]; pH 6 (Buffer P6), after 4 weeks at 30° vs. 4° C.) was “less than 1%” and the main peak changes ([2]; pH 6 (Buffer P6), after 4 weeks at 40° C. vs. 4° C.) was “less than 4%”. The “fibrillation as measured by the Thioflavin T binding assay” value ([3]; pH 6, mechanical stress) was “did not demonstrate fibrillation”, the “Thioflavin T fluorescence t = 0 h” value [3, 4] was 74.6 fluorescence units and the “Thioflavin T fluorescence t = 40 h” value [3, 4] was 76.9 fluorescence units. For the same compound, the “Thioflavin T fluorescence t = 120 h” value [3, 4] was 89.2 fluorescence units, the “Thioflavin T fluorescence t = 0 h” value [3, 5] was 130.1 fluorescence units and the “Thioflavin T fluorescence t = 120 h” value [3, 5] was 137.0 fluorescence units. For the same compound, the “Thioflavin T fluorescence t = 40 h” value ([3]; Buffer 2 (10 mM Histidine, NaCl, pH 6.0)) was 137.3 fluorescence units, the “Thioflavin T fluorescence t = 0 h” value [3, 6] was 68.1 fluorescence units and the “Thioflavin T fluorescence t = 40 h” value [3, 6] was 71.4 fluorescence units. The “Thioflavin T fluorescence t = 120 h” value [3, 6] was 72.4 fluorescence units, the “Thioflavin T fluorescence t = 0 h” value [3, 7] was 51.9 fluorescence units and the “Thioflavin T fluorescence t = 40 h” value [3, 7] was 56.2 fluorescence units. For the same compound, the “Thioflavin T fluorescence t = 120 h” value [3, 7] was 57.4 fluorescence units, the “Thioflavin T fluorescence t = 0 h” value [3, 8] was 113.9 fluorescence units and the “Thioflavin T fluorescence t = 40 h” value [3, 8] was 120.0 fluorescence units. The “Thioflavin T fluorescence t = 120 h” value [3, 8] was 123.2 fluorescence units, the “Thioflavin T fluorescence t = 0 h” value [3, 9] was 78.0 fluorescence units and the “Thioflavin T fluorescence t = 40 h” value [3, 9] was 74.1 fluorescence units. The “Thioflavin T fluorescence t = 120 h” value [3, 9] was 88.9 fluorescence units, the Blood glucose levels (C57/Bl6 male mice; 1 μg/kg subcutaneously, 0 minutes) was 165.3 ± 16.7 mg/dL and the Blood glucose levels (C57/Bl6 male mice; 1 μg/kg subcutaneously, 15 minutes) was 212.0 ± 12.6 mg/dL. For the same compound, the Blood glucose levels (C57/Bl6 male mice; 1 μg/kg subcutaneously, 30 minutes) was 203.1 ± 13.1 mg/dL, the Blood glucose levels (C57/Bl6 male mice; 1 μg/kg subcutaneously, 60 minutes) was 169.9 ± 10.1 mg/dL and the Blood glucose levels (C57/Bl6 male mice; 1 μg/kg subcutaneously, 120 minutes) was 141.0 ± 4.2 mg/dL. For the same compound, the Blood glucose levels (C57/Bl6 male mice; 3 μg/kg subcutaneously, 0 minutes) was 148.0 ± 4.6 mg/dL, the Blood glucose levels (C57/Bl6 male mice; 3 μg/kg subcutaneously, 15 minutes) was 234.1 ± 9.8 mg/dL and the Blood glucose levels (C57/Bl6 male mice; 3 μg/kg subcutaneously, 30 minutes) was 242.1 ± 8.3 mg/dL. For the same compound, the Blood glucose levels (C57/Bl6 male mice; 3 μg/kg subcutaneously, 60 minutes) was 169.4 ± 7.3 mg/dL, the Blood glucose levels (C57/Bl6 male mice; 3 μg/kg subcutaneously, 120 minutes) was 148.2 ± 10.9 mg/dL and the Blood glucose levels (C57/Bl6 male mice; 10 μg/kg subcutaneously, 0 minutes) was 155.4 ± 10.1 mg/dL. The Blood glucose levels (C57/Bl6 male mice; 10 μg/kg subcutaneously, 15 minutes) was 270.0 ± 12.7 mg/dL, the Blood glucose levels (C57/Bl6 male mice; 10 μg/kg subcutaneously, 30 minutes) was 308.5 ± 2.6 mg/dL and the Blood glucose levels (C57/Bl6 male mice; 10 μg/kg subcutaneously, 60 minutes) was 212.4 ± 8.3 mg/dL. The Blood glucose levels (C57/Bl6 male mice; 10 μg/kg subcutaneously, 120 minutes) was 152.4 ± 1.5 mg/dL, the ED50 (C57/Bl6 male mice; calculated on the 30 minute glucose measurements, 10 μg/kg taken as maximum, subcutaneous) was 3.28 µg/kg and the “effect on blood glucose” value (C57/Bl6 male mice; subcutaneous, C57/Bl6 mice) was “able to increase blood glucose”.
